Results: patent US9695155B2, “Herbicidal substituted pyrimidinyloxy benzene compounds” (E. I. DU PONT DE NEMOURS AND COMPANY, priority 2013, dated 2017)

Experiments:
barnyardgrass [1] = assay: Test A postemergence; format: in vivo, Echinochloa crus-galli; conditions: Echinochloa crus-galli, post-emergence, 240 h
Outline: (§1)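 Injury scores run from 0, no effect, to 100, complete control, judged by eye against untreated plants roughly 10 days after treatment. Chemicals carried a surfactant in a non-phytotoxic solvent and went onto loam–sand soil preemergence or onto one- to two-leaf seedlings postemergence.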

johnsongrass = assay: Test C postemergence; format: in vivo, Sorghum halepense; conditions: Sorghum halepense, post-emergence
Outline: (§2)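 Visual injury score versus untreated controls, 0 = no effect, 100 = complete control, taken 13 to 15 days after treatment in the greenhouse. Pre-emergence pots held loam/sand; post-emergence plants grew in sphagnum peat/vermiculite mix and were sprayed at the 1- to 4-leaf stage.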

barnyardgrass [2] = assay: Test B flooded paddy test; format: in vivo, Echinochloa crus-galli; conditions: Echinochloa crus-galli; Flood, 250 g ai/ha; 0 to 100 scale where 0 is no effect and 100 is complete control; read-out: Plant response rating, Barnyardgrass
Outline: (§3)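 2-leaf stage plants; pots flooded to 3 cm, compound added to paddy water, depth maintained. Greenhouse 13–15 d. Visual rating vs untreated controls, 0 (no effect) to 100 (complete control); dash = no result.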

corn [3] = assay: Test A preemergence; format: in vivo, Zea mays; conditions: Zea mays, pre-emergence, 240 h
Outline: as §1

morningglory = assay: Test A preemergence; format: in vivo, Ipomoea spp.
Outline: as §1

wild oat = assay: Test C postemergence; format: in vivo, Avena fatua; conditions: Avena fatua, post-emergence
Outline: as §2

barnyardgrass [4] = assay: Test C postemergence; format: in vivo, Echinochloa crus-galli; conditions: Echinochloa crus-galli, post-emergence
Outline: as §2

waterhemp = assay: Test C postemergence; format: in vivo, Amaranthus rudis; conditions: Amaranthus tuberculatus, post-emergence
Outline: as §2

corn [5] = assay: Test C preemergence; format: in vivo, Zea mays; conditions: Zea mays, pre-emergence, preemergence, scale 0 (no effect) to 100 (complete control), read-out: Corn plant response rating
Outline: as §2

sedge, umbrella = assay: Test B flooded paddy test; format: in vivo, Cyperus difformis; conditions: Cyperus difformis, Flood, 250 g ai/ha; 0 to 100 scale where 0 is no effect and 100 is complete control; read-out: Plant response rating, Sedge, Umbrella
Outline: as §3

pigweed = assay: Test C postemergence; format: in vivo, Amaranthus retroflexus; conditions: Amaranthus retroflexus, post-emergence
Outline: as §2

yellow nutsedge = assay: Test C postemergence; format: in vivo, Cyperus esculentus; conditions: Cyperus, post-emergence
Outline: as §2

velvetleaf = assay: Test C postemergence; format: in vivo, Abutilon theophrasti; conditions: Abutilon theophrasti, post-emergence
Outline: as §2

giant foxtail = assay: Test C preemergence; format: in vivo, Setaria faberii; conditions: Setaria faberi, pre-emergence
Outline: as §2

Italian ryegrass = assay: Test C postemergence; format: in vivo, Lolium multiflorum; conditions: Lolium multiflorum, post-emergence
Outline: as §2

[6] = 125 g ai/ha, 0 to 100 scale where 0 is no effect and 100 is complete control

**Q.** For `N#Cc1cccc(Oc2ncc(Br)cn2)c1-n1cc(C(F)(F)F)cn1` [Compound 59, 3-[(5-bromo-2-pyrimidinyl)oxy]-2-[4-(trifluoromethyl)-1H-pyrazol-1-yl]benzonitrile], which pest or weed control at 125 g/ha (barnyardgrass [1]; 125 g ai/ha, 0 to 100 scale where 0 is no effect and 100 is complete control, read-out: Plant response rating, Barnyardgrass) is on record?
**A.** 100%

**Q.** And the pest or weed control at 500 g/ha (barnyardgrass [1]; 500 g ai/ha, 0 to 100 scale, 0 no effect, 100 complete control, read-out: Plant response rating Barnyardgrass)?
**A.** 100%

**Q.** What about the pest or weed control at 125 g/ha (johnsongrass; 125 g ai/ha, postemergence, read-out: Plant response rating (0 to 100), Johnsongrass) of the same compound?
**A.** 35%

**Q.** What about the pest or weed control at 250 g/ha (johnsongrass; 250 g ai/ha, postemergence, read-out: Plant response rating (0 to 100), Johnsongrass) of the same compound?
**A.** 85%

**Q.** What about the pest or weed control at 31 g/ha (johnsongrass; Postemergence, 31 g ai/ha, scale 0 to 100 (0 no effect, 100 complete control), 13 to 15 days, read-out: Plant response rating, Johnsongrass) of the same compound?
**A.** 15%

**Q.** What about the pest or weed control at 62 g/ha (johnsongrass; Postemergence, 62 g ai/ha, scale 0 to 100 (0 no effect, 100 complete control), read-out: Plant response rating, Johnsongrass) of the same compound?
**A.** 35%

**Q.** What about the pest or weed control at 250 g/ha (barnyardgrass [2]) of the same compound?
**A.** 40%

**Q.** What about the Corn plant response rating (crop injury, 0 = no effect, 100 = complete kill) at 125 g/ha (corn [3]; [6]) of the same compound?
**A.** 20%

**Q.** And the plant injury at 500 g/ha (corn [3]; 500 g ai/ha, 0 to 100 scale, 0 no effect, 100 complete control, approx. 10 days, read-out: Corn plant response rating)?
**A.** 30%

**Q.** And the “Plant response rating, Morningglory” value (morningglory; [6])?
**A.** 80

**Q.** And the pest or weed control at 500 g/ha (morningglory; Ipomoea, pre-emergence, 240 h, 500 g ai/ha, 0 to 100 scale, 0 no effect, 100 complete control, approx. 10 days, read-out: Morningglory plant response rating)?
**A.** 100%

**Q.** And the pest or weed control at 125 g/ha (wild oat; 125 g ai/ha, postemergence, read-out: Plant response rating (0 to 100), Oat, Wild)?
**A.** 40%

**Q.** What about the pest or weed control at 250 g/ha (wild oat; 250 g ai/ha, postemergence, read-out: Plant response rating (0 to 100), Oat, Wild) of the same compound?
**A.** 40%

**Q.** And the pest or weed control at 31 g/ha (wild oat; Postemergence, 31 g ai/ha, scale 0 to 100 (0 no effect, 100 complete control), 13 to 15 days, read-out: Plant response rating, Oat, Wild)?
**A.** 25%

**Q.** And the pest or weed control at 62 g/ha (wild oat; Postemergence, 62 g ai/ha, scale 0 to 100 (0 no effect, 100 complete control), read-out: Plant response rating, Oat, Wild)?
**A.** 25%

**Q.** And the pest or weed control at 125 g/ha (barnyardgrass [4]; 125 g ai/ha, postemergence, read-out: Plant response rating (0 to 100), Barnyardgrass)?
**A.** 10%

**Q.** What about the pest or weed control at 250 g/ha (barnyardgrass [4]; 250 g ai/ha, postemergence, read-out: Plant response rating (0 to 100), Barnyardgrass) of the same compound?
**A.** 25%

**Q.** What about the pest or weed control at 31 g/ha (barnyardgrass [4]; Postemergence, 31 g ai/ha, scale 0 to 100 (0 no effect, 100 complete control), 13 to 15 days, read-out: Plant response rating, Barnyardgrass) of the same compound?
**A.** 5%

**Q.** And the pest or weed control at 62 g/ha (barnyardgrass [4]; Postemergence, 62 g ai/ha, scale 0 to 100 (0 no effect, 100 complete control), read-out: Plant response rating, Barnyardgrass)?
**A.** 5%

**Q.** What about the pest or weed control at 125 g/ha (waterhemp; 125 g ai/ha, postemergence, read-out: Plant response rating (0 to 100), Waterhemp) of the same compound?
**A.** 90%

**Q.** What about the pest or weed control at 250 g/ha (waterhemp; 250 g ai/ha, postemergence, read-out: Plant response rating (0 to 100), Waterhemp) of the same compound?
**A.** 98%

**Q.** And the pest or weed control at 31 g/ha (waterhemp; Postemergence, 31 g ai/ha, scale 0 to 100 (0 no effect, 100 complete control), 13 to 15 days, read-out: Plant response rating, Waterhemp)?
**A.** 85%

**Q.** And the pest or weed control at 62 g/ha (waterhemp; Postemergence, 62 g ai/ha, scale 0 to 100 (0 no effect, 100 complete control), read-out: Plant response rating, Waterhemp)?
**A.** 85%

**Q.** What about the plant injury at 62 g/ha (corn [5]; 62 g ai/ha) of the same compound?
**A.** 55%

**Q.** What about the plant injury at 125 g/ha (corn [5]; 125 g ai/ha) of the same compound?
**A.** 75%

**Q.** What about the plant injury at 250 g/ha (corn [5]; 250 g ai/ha) of the same compound?
**A.** 90%

**Q.** And the pest or weed control at 250 g/ha (sedge, umbrella)?
**A.** 90%

**Q.** And the pest or weed control at 125 g/ha (pigweed; 125 g ai/ha, postemergence, read-out: Plant response rating (0 to 100), Pigweed)?
**A.** 95%

**Q.** And the pest or weed control at 250 g/ha (pigweed; 250 g ai/ha, postemergence, read-out: Plant response rating (0 to 100), Pigweed)?
**A.** 98%

**Q.** And the pest or weed control at 31 g/ha (pigweed; Postemergence, 31 g ai/ha, scale 0 to 100 (0 no effect, 100 complete control), 13 to 15 days, read-out: Plant response rating, Pigweed)?
**A.** 80%

**Q.** What about the pest or weed control at 62 g/ha (pigweed; Postemergence, 62 g ai/ha, scale 0 to 100 (0 no effect, 100 complete control), read-out: Plant response rating, Pigweed) of the same compound?
**A.** 90%

**Q.** And the pest or weed control at 125 g/ha (yellow nutsedge; 125 g ai/ha, postemergence, read-out: Plant response rating (0 to 100), Nutsedge, Yellow)?
**A.** 5%

**Q.** And the pest or weed control at 250 g/ha (yellow nutsedge; 250 g ai/ha, postemergence, read-out: Plant response rating (0 to 100), Nutsedge, Yellow)?
**A.** 10%

**Q.** And the pest or weed control at 31 g/ha (yellow nutsedge; Postemergence, 31 g ai/ha, scale 0 to 100 (0 no effect, 100 complete control), 13 to 15 days, read-out: Plant response rating, Nutsedge, Yellow)?
**A.** 0%

**Q.** What about the pest or weed control at 62 g/ha (yellow nutsedge; Postemergence, 62 g ai/ha, scale 0 to 100 (0 no effect, 100 complete control), read-out: Plant response rating, Nutsedge, Yellow) of the same compound?
**A.** 5%

**Q.** And the pest or weed control at 125 g/ha (velvetleaf; 125 g ai/ha, postemergence, read-out: Plant response rating (0 to 100), Velvetleaf)?
**A.** 55%

**Q.** What about the pest or weed control at 250 g/ha (velvetleaf; 250 g ai/ha, postemergence, read-out: Plant response rating (0 to 100), Velvetleaf) of the same compound?
**A.** 70%

**Q.** And the pest or weed control at 31 g/ha (velvetleaf; Postemergence, 31 g ai/ha, scale 0 to 100 (0 no effect, 100 complete control), 13 to 15 days, read-out: Plant response rating, Velvetleaf)?
**A.** 15%

**Q.** And the pest or weed control at 62 g/ha (velvetleaf; Postemergence, 62 g ai/ha, scale 0 to 100 (0 no effect, 100 complete control), read-out: Plant response rating, Velvetleaf)?
**A.** 30%

**Q.** What about the pest or weed control at 62 g/ha (giant foxtail; 62 g ai/ha, preemergence, scale 0 (no effect) to 100 (complete control), read-out: Foxtail, Giant plant response rating) of the same compound?
**A.** 98%

**Q.** And the pest or weed control at 125 g/ha (giant foxtail; 125 g ai/ha, preemergence, scale 0 (no effect) to 100 (complete control), read-out: Foxtail, Giant plant response rating)?
**A.** 100%

**Q.** What about the pest or weed control at 250 g/ha (giant foxtail; 250 g ai/ha, preemergence, scale 0 (no effect) to 100 (complete control), read-out: Foxtail, Giant plant response rating) of the same compound?
**A.** 100%

**Q.** And the pest or weed control at 31 g/ha (giant foxtail; Preemergence, 31 g ai/ha, scale 0 to 100, 0 no effect, 100 complete control, read-out: Plant response rating, Foxtail, Giant)?
**A.** 95%

**Q.** What about the pest or weed control at 125 g/ha (Italian ryegrass; 125 g ai/ha, postemergence, read-out: Plant response rating (0 to 100), Ryegrass, Italian) of the same compound?
**A.** 10%

**Q.** And the pest or weed control at 250 g/ha (Italian ryegrass; 250 g ai/ha, postemergence, read-out: Plant response rating (0 to 100), Ryegrass, Italian)?
**A.** 30%

**Q.** And the pest or weed control at 31 g/ha (Italian ryegrass; Postemergence, 31 g ai/ha, scale 0 to 100 (0 no effect, 100 complete control), 13 to 15 days, read-out: Plant response rating, Ryegrass, Italian)?
**A.** 5%

**Q.** What about the pest or weed control at 62 g/ha (Italian ryegrass; Postemergence, 62 g ai/ha, scale 0 to 100 (0 no effect, 100 complete control), read-out: Plant response rating, Ryegrass, Italian) of the same compound?
**A.** 10%
